“Also recorded” adds a separate entry of the source.
Legend:
Format in all cases: in vivo
[1] = Rainbow trout 20-week feeding from first-feeding, feed efficiency and whole body composition; details: 80 μg/Kg 25-OH-D3 plus D3, 20 weeks
Protocol: The first study evaluated standard dietary levels of supplemented vitamin D3 alone or in combination with 80 μg/Kg 25-hydroxy vitamin D3dietary 25-hydroxyvitamin D3 (25-OH D3) in rainbow trout fed for 20 weeks from first-feeding.
Two commercial-like experimental diets were formulated by DSM Nutritional Products France and produced by SPAROS (Portugal). The basal diet was supplemented with either vitamin D3 only (VitD3 diet) or D3 in combination with 80 μg/Kg 25-hydroxy vitamin D3 (25-OH-D3 diet) (Table 1).
The parameters for growth performance, including feed efficiency (FE), were measured every 3 weeks and calculated as follow: Feed efficiency (FE)=(the mass for dead fish+final wet body mass-initial wet body mass)/dry feed intake. […].
Data are presented as means±standard deviation (SD). For growth parameters, the plasma and the qPCR results, data were analyzed by t-Student comparison of two means. Normality was assessed using the Shaprio-Wilk test, while homoscedasticity was determined using Levene's test. Data was analysed using the statistical R software/R Commander package. For all statistical analyses, the level of significance was set at P<0.05. […] Differentially expressed genes (DEG) are determined and hierarchical clustering is illustrated by a heatmap. […]

[2] = Study 2: Atlantic salmon 90-day feeding trial, final body weight, FCR and PER; details: Atlantic salmon, 100, 200 or 400 μg/kg 25-OH-D3 in feed, 90 days, relative to control
Protocol: (§1) The second study evaluated dietary 25-hydroxyvitamin D3 (25-OH D3) compared to control basal diet fed fish.
(§2) Fish with a mean starting weight of 23.4 g were fed diets based on the same standard composition representative of typical commercial salmonid feeds. Test diets contained no supplemented 25-OH-D3 or either 100, 200 or 400 μg/kg supplemented 25-OH-D3 (as fed basis). Hy·D (25-OH-D3) was supplemented on top of diets already containing cholecalciferol (D3) from both endogenous and supplemented sources. The measured levels of D3 in all experimental diets were in excess of established minimum dietary requirements for D3, (National Research Council (NRC), Nutrient Requirements of Fish and Shrimp. 2011, Washington, DC: The National Academies Press. 392.). In addition, the dietary level of D3 in all experimental diets met recommendations for optimal vitamin D3 in salmonid diets (Fish Nutrition. Fourth Edition 2021. Edited by Ronald W. Hardy and Sadasivam J. Kaushik. Academic Press, UK. 905 pp.), which stipulates a vitamin D3 supplementation of 2500-3500 international units (IU)/62.5-87.5 μg/kg). Diets were fed for 90 days with test fish reaching a mean final weight of 73.0 g. Twenty fish were housed in each tank and each treatment consisted of five replicate tanks.

[3] = Study 1: rainbow trout 91-day feeding trial, growth performance (SGR) and feed conversion (FCR); details: rainbow trout, 80, 800 or 8000 μg/kg 25-OH-D3 in feed, 91 days
Protocol: (§3) The first study evaluated dietary 25-hydroxyvitamin D3 (25-OH D3) compared to control basal diet fed fish. Fish with a mean starting weight of 58 g were fed diets based on the same standard composition representative of typical commercial salmonid feeds.
(§4) Test diets contained no supplemented 25-OH-D3 or either 80, 800 or 8000 μg/kg supplemented 25-OH-D3 (as fed basis). Hy·D (25-OH-D3) was supplemented on top of diets already containing cholecalciferol (D3) from both endogenous and supplemented sources. The measured levels of D3 in all experimental diets were in excess of established minimum dietary requirements for D3, (National Research Council (NRC), Nutrient Requirements of Fish and Shrimp. 2011, Washington, DC: The National Academies Press. 392.). In addition, the dietary level of D3 in all experimental diets met recommendations for optimal vitamin D3 in salmonid diets (Fish Nutrition. Fourth Edition 2021. Edited by Ronald W. Hardy and Sadasivam J. Kaushik. Academic Press, UK. 905 pp.), which stipulates a vitamin D3 supplementation of 2500-3500 international units (IU)/62.5-87.5 μg/kg). Diets were fed for 91 days following which, test fish reached a mean final weight of 332 g. Forty fish were housed in each tank and each treatment consisted of four replicate tanks.

[4] = Study 2: Atlantic salmon 90-day feeding trial, viscerosomatic index, carcass yield and visceral fat; details: Atlantic salmon, 100, 200 or 400 μg/kg 25-OH-D3 in feed, 90 days, relative to control
Protocol: as §1, §2

[5] = Study 1: rainbow trout 91-day feeding trial, vitamin D3 metabolites in plasma and muscle
Protocol: as §3, §4

[6] = rainbow trout, 80, 800 or 8000 μg/kg in standard trout feed

**Q.** Which “feed efficiency (FE)” value ([1]; rainbow trout fry, vs 1.19 for comparison diet, p=0.0002) does the source give for `C=C1CC[C@H](O)C/C1=C/C=C1\CCC[C@]2(C)[C@@H]([C@H](C)CCCC(C)(C)O)CC[C@@H]12` [25-OH-D3, 25-hydroxyvitamin D3] here?
**A.** 1.29

**Q.** What about the whole body protein ([1]; rainbow trout, 47.38 vs. 51.15, p=0.006) of the same compound?
**A.** 51.15

**Q.** What about the “feed conversion (FCR)” value [2] of the same compound?
**A.** improved

**Q.** What about the final body weight [2] of the same compound?
**A.** improved; also recorded: increased growth

**Q.** What about the “protein efficiency ratio (PER)” value [2] of the same compound?
**A.** improved

**Q.** What about the “specific growth rate (SGR) relative to the control” value ([3]; apparent from 31 days onwards) of the same compound?
**A.** rapidly improved; also recorded: increased growth rate relative to the control

**Q.** And the “feed conversion ratio (FCR) relative to the control” value ([3]; from 15 days onwards)?
**A.** rapidly improved

**Q.** What about the “carcass yield (percentage carcass)” value [4] of the same compound?
**A.** improved carcass yields; also recorded: increased

**Q.** What about the “percentage fat in the viscera” value [4] of the same compound?
**A.** reduced percentage fat being deposited in the viscera

**Q.** And the “viscerosomatic index (VSI)” value [4]?
**A.** reduced VSI; also recorded: decreased VSI

**Q.** What about the “plasma levels of 1,25-OH-D3 (active D3 metabolite)” value ([5]; rainbow trout, 80, 800 or 8000 μg/kg dietary 25-OH-D3 from Hy·D, D3-replete diets) of the same compound?
**A.** increased plasma levels

**Q.** What about the “blood plasma 25-OH-D3 in response to increasing dietary 25-OH-D3” value [5, 6] of the same compound?
**A.** increase in a linear relationship

**Q.** What about the “muscle 25-OH-D3 in response to increasing dietary 25-OH-D3” value [5, 6] of the same compound?
**A.** increase in a linear relationship

**Q.** And the bioavailability to fish ([5]; rainbow trout, from changes in plasma and muscle vitamin D3 metabolites)?
**A.** highly bioavailable

Source: patent US20250099490A1, “25-HYDROXYVITAMIN D AS A FEED ADDITIVE FOR AQUATIC ANIMALS” (DSM IP Assets B.V., priority 2022, published 2025)
